Measured values as given in ChEMBL document CHEMBL4364307, “2-(phenylthio)ethylidene derivatives as anti-Trypanosoma cruzi compounds: Structural design, synthesis and antiparasitic activity” (Eur J Med Chem, 2019).
Calls of active or inactive are those of the source. The calls are words filed in the database; no cut-off is given here.

Assays:
[1] = Selectivity index, ratio of maximum non-toxic concentration for Balb/c mouse splenocyte to IC50 for bloodstream form of Trypanosoma cruzi trypomastigotes; type: toxicity; details: mouse splenocytes, read-out: Selectivity Index
[2] = tested on: Trypanosoma cruzi; assay: (§1) Antiparasitic activity against bloodstream form of Trypanosoma cruzi Y strain trypomastigotes infected in Balb/c mouse peritoneal macrophage incubated for 6 hrs followed by replacement of fresh medium measured after 3 days by Giemsa-staining based optical microscopic analysis; type: functional, organism-based
[3] = tested on: Trypanosoma cruzi; assay: Antitrypanosomal activity against bloodstream form of Trypanosoma cruzi trypomastigotes after 24 hrs by Neubauer chamber method; type: functional, organism-based
[4] = tested on: Trypanosoma cruzi; assay: as §1, with “macrophage assessed as reduction in percent of infected macrophages at 20 uM” for “macrophage”; type: functional, organism-based
[5] = Cytotoxicity against Balb/c mouse splenocyte assessed as reduction in cell viability after 24 hrs by [3H]thymidine incorporation based beta scintillation counting analysis; details: mouse splenocytes
[6] = tested on: Trypanosoma cruzi; assay: as §1, with “macrophage assessed as reduction in number of amastigotes/100 macrophages at 20 uM” for “macrophage”; type: functional, organism-based
[7] = tested on: Trypanosoma cruzi; assay: Antitrypanosomal activity against Trypanosoma cruzi Dm28c epimastigotes after 5 days by Neubauer chamber method; type: functional, organism-based; details: 120 h
[8] = biological target: Cruzipain (Trypanosoma cruzi) (UniProt P25779); assay: Inhibition of Trypanosoma cruzi cruzain at 100 uM using Z-FR-AMC as substrate preincubated for 10 mins followed by substrate addition and measured for 5 mins by fluorimetric analysis relative to control
Cruzipain (Trypanosoma cruzi), sequence (P25779 123-467 limits assumed): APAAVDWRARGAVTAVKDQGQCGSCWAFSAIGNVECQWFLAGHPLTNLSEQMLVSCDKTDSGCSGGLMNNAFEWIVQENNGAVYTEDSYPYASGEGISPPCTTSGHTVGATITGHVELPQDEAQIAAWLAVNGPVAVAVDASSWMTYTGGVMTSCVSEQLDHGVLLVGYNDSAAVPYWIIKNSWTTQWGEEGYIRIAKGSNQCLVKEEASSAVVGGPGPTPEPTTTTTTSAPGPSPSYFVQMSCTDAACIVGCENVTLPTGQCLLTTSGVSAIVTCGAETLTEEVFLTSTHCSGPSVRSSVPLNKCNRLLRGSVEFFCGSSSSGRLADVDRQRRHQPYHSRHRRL

[9] = tested on: Trypanosoma cruzi; assay: Induction of apoptosis in bloodstream form of Trypanosoma cruzi trypomastigotes at 1.1 mM after 24 hrs by annexin V-FITC/propidium iodide staining based flow cytometry relative to control; type: functional, organism-based
[10] = tested on: Trypanosoma cruzi; assay: Induction of apoptosis in bloodstream form of Trypanosoma cruzi trypomastigotes at 0.25 mM after 24 hrs by annexin V-FITC/propidium iodide staining based flow cytometry relative to control; type: functional, organism-based
[11] = tested on: Trypanosoma cruzi; assay: Induction of morphological changes in Trypanosoma cruzi bloodstream trypomastigotes assessed as disorganization of golgi complex at 3 uM after 24 hrs by TEM analysis; type: functional, organism-based
[12] = tested on: Trypanosoma cruzi; assay: Induction of morphological changes in Trypanosoma cruzi bloodstream trypomastigotes assessed as appearance of atypical vacuoles in cytoplasm at 3 uM after 24 hrs by TEM analysis; type: functional, organism-based
[13] = tested on: Trypanosoma cruzi; assay: Induction of morphological changes in Trypanosoma cruzi bloodstream trypomastigotes assessed as appearance of myelin figures in mitochondria at 3 uM after 24 hrs by TEM analysis; type: functional, organism-based
[14] = tested on: Trypanosoma cruzi; assay: Induction of morphological changes in Trypanosoma cruzi bloodstream trypomastigotes assessed as appearance myelin figures in cytoplasm at 3 uM after 24 hrs by TEM analysis; type: functional, organism-based
[15] = tested on: Trypanosoma cruzi; assay: Antiparasitic activity against bloodstream form of Trypanosoma cruzi Y strain trypomastigotes infected in Balb/c mouse peritoneal macrophage at 20 uM incubated for 2 hrs followed by extracellular parasites wash out and measured after 2 hrs by Giemsa staining-based optical microscopic analysis
[16] = tested on: Trypanosoma cruzi; assay: Antitrypanosomal activity against Trypanosoma cruzi Y strain epimastigotes after 15 hrs by hemocytometer based cell counting method; type: functional, organism-based
[17] = biological target: Cruzipain (Trypanosoma cruzi, UniProt P25779); assay: Inhibition of Trypanosoma cruzi cruzain using Z-FR-AMC as substrate preincubated for 10 mins followed by substrate addition and measured for 5 mins by fluorimetric analysis
Cruzipain, sequence (P25779 whole entry): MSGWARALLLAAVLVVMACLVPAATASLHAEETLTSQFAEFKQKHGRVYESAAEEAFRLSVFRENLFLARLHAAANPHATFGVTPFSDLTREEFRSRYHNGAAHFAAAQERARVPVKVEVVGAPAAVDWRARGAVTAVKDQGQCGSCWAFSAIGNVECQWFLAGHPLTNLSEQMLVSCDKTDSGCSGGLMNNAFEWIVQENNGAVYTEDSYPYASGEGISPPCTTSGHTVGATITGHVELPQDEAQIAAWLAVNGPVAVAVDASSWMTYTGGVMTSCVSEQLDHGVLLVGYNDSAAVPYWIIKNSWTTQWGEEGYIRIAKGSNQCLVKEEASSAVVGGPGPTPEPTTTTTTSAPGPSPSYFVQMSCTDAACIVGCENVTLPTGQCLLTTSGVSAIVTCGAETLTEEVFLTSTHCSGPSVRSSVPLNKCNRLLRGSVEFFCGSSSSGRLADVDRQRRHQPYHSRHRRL

Structure (SMILES)	selectivity ratio [1]	IC50 [3] [µM]	MNTC at 24 h [5] [µM]	IC50 [7] [µM]	inhibition [8] [%]	also measured
O=[N+]([O-])c1ccc(-c2csc(N/N=C/CSc3ccccc3)n2)cc1	8	8.4	67.5	16	18.9	IC50 [2]: 19.3 µM; Activity [4]: Active; Activity [6]: Active
NC(=S)N/N=C/CSc1ccc(F)cc1	3.6	5.7	20.5	6.1	27.5	
Clc1ccc(-c2csc(N/N=C/CSc3ccccc3)n2)cc1Cl	8.3	15.2	127	56.5	62.9	
Cc1cccc(SC/C=N/NC(N)=S)c1	2.3	1.8	< 4.2	6.3	43.4	Activity [9]: Active; Activity [10]: Active
Cc1ccccc1SC/C=N/NC(N)=S	6.9	6.1	41.8	15.3	13.9	
Cc1sc(N/N=C/CSc2ccccc2)nc1-c1ccc(Br)cc1	> 95.1	2.6	> 247	4.1	27	Activity [9]: Active; Activity [11]: Active; IC50 [2]: 10.2 µM; Activity [12]: Active; Activity [10]: Active; Activity [4]: Active; Activity [6]: Active; Activity [13]: Active; Activity [14]: Active; inhibition [15]: Active
NC(=S)N/N=C/CSc1cc(Cl)ccc1Cl	10.4	8.2	85	6.1	37.4	
Clc1ccc(-c2csc(N/N=C/CSc3ccccc3)n2)cc1	> 67.8	4.1	> 278	6.8	17.6	Activity [9]: Active; IC50 [2]: 7.88 µM; Activity [10]: Active; Activity [4]: Active; Activity [6]: Active; inhibition [15]: Active
C(/CSc1ccccc1)=N\Nc1nc(-c2ccccc2)cs1	29.5	5.2	154	59.4		Activity [9]: Active; Activity [10]: Active
CC(C)C1S/C(=N/N=C/CSc2ccccc2)NC1=O (stereo not drawn)						IC50 [16]: 0.3 µM
Cc1ccc(C)c(SC/C=N/NC(N)=S)c1	0.7	5.9	< 3.9	6.2	87.6	Activity [9]: Active; Activity [10]: Active; IC50 [17]: 3.3 µM
Fc1ccc(-c2csc(N/N=C/CSc3ccccc3)n2)cc1	> 7	41.7	> 291		22.9	
Brc1ccc(-c2csc(N/N=C/CSc3ccccc3)n2)cc1	> 16.7	14.3	> 239	5.4	7	
Cc1ccc(SC/C=N/NC(N)=S)cc1			4.2	9.6	31.4	
O=[N+]([O-])c1cccc(-c2csc(N/N=C/CSc3ccccc3)n2)c1	7	19.2	135	8.4	16.2	
COc1ccc(-c2csc(N/N=C/CSc3ccccc3)n2)cc1	> 15.2	18.5	> 281	62.7		
C/C(COc1ccccc1)=N\Nc1nc(-c2ccncc2)cs1		3.9		4		
NC(=S)N/N=C/CSc1ccccc1Cl	0.6	6.2	< 3.8	47.7	46	
NC(=S)N/N=C/CSc1ccc(Br)cc1	0.5	6.6	< 3.3	15.4	16.6	Activity [9]: Active; Activity [10]: Active
C/C(COc1ccccc1)=N\Nc1nc(-c2ccc(Br)cc2)cs1				49.8		
NC(=S)N/N=C/CSc1ccccc1	0.25	89		102	42.1	
NC(=S)N/N=C/CSc1ccc(Cl)cc1	0.3	14.1	< 3.8	6.2	25.2	
NC(=S)N/N=C/CSc1cccc(Cl)c1	6.8	14.1	96.2	5.5	75.9	IC50 [17]: 19 µM
Cc1ccc(-c2csc(N/N=C/CSc3ccccc3)n2)cc1	25.8	5.7	147	9.4	11.9	Activity [9]: Active; IC50 [2]: 18.8 µM; Activity [10]: Active; Activity [4]: Active; Activity [6]: Active
COc1ccc(SC/C=N/NC(N)=S)cc1	0.1	39.7	< 3.9	32.1	34.6	
C/C(COc1ccccc1)=N\Nc1nc(-c2cccc([N+](=O)[O-])c2)cs1		3.8		4		
O=C(Cn1ccnc1[N+](=O)[O-])NCc1ccccc1 [BENZNIDAZOLE]	15.5	6.2				
Clc1ccc(-c2csc(N/N=C/CSc3ccccc3)n2)c(Cl)c1	30.9	4.1	127	7.9	67.2	Activity [9]: Active; Activity [10]: Active
